# PMC13083723 (Patterns, 2026)
# Residues, ends and D or L forms follow the SMILES beside them. *: point of attachment. PhAc = O=C(Cc1ccccc1)*
# Tested on: Vero-E6 cells
# Assay: cells
# Assay type: cell-based
# Settings: Chlorocebus sabaeus, Vero C1008, 24 h, read-out: PL_Result
row,Structure (SMILES),activation at 10 µM
1,CN1C(=O)OC(C)(C)C1=O [SPE_K16606819],-11.7%
2,CN(C)C(=O)Oc1cccc([N+](C)(C)C)c1 [SPE_K18922609],-9.73%
3,Fc1ccc(C(OCCN2CCN(CCCc3ccccc3)CC2)c2ccc(F)cc2)cc1 [SPE_K32501161],-3.21%
4,O=[N+]([O-])c1ncc[nH]1 [SPE_K26824830],-1.75%
5,NCC(CS(=O)(=O)O)c1ccc(Cl)cc1 (stereo not shown) [SPE_A24122750],-1.21%
6,COC(=O)C1=CCCN(C)C1 [SPE_K88646909],3.55%
7,Cc1cccc(Nc2ccncc2S(=O)(=O)NC(=O)NC(C)C)c1 [SPE_K30480208],-3.18%
8,CC[C@@]1(O)C(=O)OCc2c1cc1n(c2=O)Cc2cc3c(CN(C)C)c(O)ccc3nc2-1 [SPE_K55696337],-1.88%
9,Cc1nc(N)sc1-c1ccnc(Nc2ccc(N3CCOCC3)cc2)n1 [SPE_K64866502],-7.46%
10,CNC(=O)c1cc2c(cn1)[nH]c1ccccc12 [SPE_K61951118],-1.18%
11,COc1ccc(Nc2ncnc3ccc(OC)cc23)cc1 [SPE_K87696786],-2.62%
12,CC(C)(C)C(=O)OCC(=O)[C@H]1CC[C@H]2[C@@H]3CCC4=CC(=O)CC[C@]4(C)[C@H]3CC[C@]12C [SPE_K26024145],-4.69%
13,CNCCc1ccc(O)c(O)c1 [SPE_K33151569],-7.82%
14,COc1cc2ncnc(Nc3ccc(Oc4ccccc4)cc3)c2cc1OC [SPE_K50495309],-8.17%
15,NC[C@H]1O[C@H](O[C@H]2[C@H](O)[C@@H](O[C@H]3O[C@H](CO)[C@@H](O)[C@H](N)[C@H]3O)[C@H](N)C[C@@H]2N)[C@H](N)C[C@@H]1O [SPE_K96342952],-3.75%
16,CCN(C(=O)c1c(O)c2c(Cl)cccc2n(C)c1=O)c1ccccc1 [SPE_K60918217],-1.53%
17,Cc1nccc2[nH]c(=O)ccc12 [SPE_K40715924],-2.15%
18,C=C1C(=O)O[C@@H]2[C@H]3O[C@]3(C)CC/C=C(\C)CC[C@@H]12 [SPE_K28120222],-7.03%
19,C=C(c1ccc(C(=O)O)cc1)c1cc2c(cc1C)C(C)(C)CCC2(C)C [SPE_K92441787],-8.8%
20,Cn1c(=O)[nH]c2ncn(C)c2c1=O [SPE_K24084088],-5.64%
21,CCCC(CCC)C(=O)NCc1ccc2c(cnn2-c2ccccc2OC)c1 [SPE_K51265828],1.45%

row,Structure (SMILES),activation at 10 µM
1,CCN(CC)C(=O)N1CCN(C)CC1 [SPE_K45542189],3.18%
2,C=CC(C)(O)CCC=C(C)C (stereo not shown) [SPE_A43082461],-7.7%
3,C[C@H]1CO[C@@H]2Cn3cc(C(=O)NCc4ccc(F)cc4F)c(=O)c(O)c3C(=O)N12 [SPE_A95114378],-1.46%
4,CN1CC[C@@H](c2c(O)cc(O)c3c(=O)cc(-c4ccccc4Cl)oc23)[C@@H]1CO [SPE_K51791723],1.15%
5,CC[C@@H]([C@H](C)O)n1ncn(-c2ccc(N3CCN(c4ccc(OC[C@@H]5CO[C@@](Cn6cncn6)(c6ccc(F)cc6F)C5)cc4)CC3)cc2)c1=O [SPE_K06222852],-4.55%
6,Cc1cn(C2CC(N=[N+]=[N-])C(CO)O2)c(=O)[nH]c1=O (stereo not shown) [SPE_A33692381],-1.92%
7,C=CCC1(CC(C)C)C(=O)NC(=O)NC1=O [SPE_K71350836],-15.8%
8,CC(=O)N(OCc1ccccc1)[C@@H]1c2cc(C#N)ccc2OC(C)(C)[C@H]1O [SPE_K42679050],0.738%
9,Nc1nc2[nH]nnc2c(=O)[nH]1 [SPE_K53114651],-1.39%
10,Nc1ncc(Cc2ccc(Br)cc2)s1 [SPE_K03808106],-0.249%
11,CS(=O)(=O)c1ccc(C(O)[C@H](CF)NC(=O)C(Cl)Cl)cc1 (stereo partly shown) [SPE_A30886737],3.66%
12,CCn1cnc2c(Nc3cccc(Cl)c3)nc(N[C@@H]3CCCC[C@@H]3N)nc21 [SPE_K56239177],0.0914%
13,C=C[C@@H]1C[C@]1(NC(=O)[C@@H]1C[C@@H](Oc2ncc(OC)c3ccc(Cl)cc23)CN1C(=O)[C@@H](NC(=O)OC(C)(C)C)C(C)(C)C)C(=O)NS(=O)(=O)C1CC1 [SPE_K87028197],-0.0254%
14,CC(=O)Nc1ccc(OC[C@](C)(O)C(=O)Nc2ccc([N+](=O)[O-])c(C(F)(F)F)c2)cc1 [SPE_K82164249],-13.9%
15,Fc1ccc(-c2c3cccc(C(F)(F)F)c3nn2Cc2ccc(F)cc2Cl)cc1 [SPE_K54520417],-2.25%
16,CN(C)C(=N)NCCC[C@H](N)C(=O)O [SPE_K36269323],-6.39%
17,Cc1ccc(S(=O)(=O)NC(=O)NN2CCCCCC2)cc1 [SPE_K32164935],-1.35%
18,C[C@@]12C[C@@]3(O)O[C@@H](O1)[C@]1(COC(=O)c4ccccc4)[C@H]3C[C@@]12O[C@@H]1O[C@H](CO)[C@@H](O)[C@H](O)[C@H]1O [SPE_K83631119],4.42%
19,CN1C2CCCC1CC(NC(=O)c1nn(C)c3ccccc13)C2 (stereo not shown) [SPE_A10967948],3.5%
20,C[C@]12C=CC(=O)C=C1CCC1C2[C@@H](O)C[C@@]2(C)C1CC[C@]2(O)C(=O)COC(=O)CCC(=O)O (stereo partly shown) [SPE_A78391468],3.52%
21,O=C1NC(=S)NC(=O)C1C(=O)Nc1ccccc1 [SPE_K45152786],-1.42%

row,Structure (SMILES),activation at 10 µM
1,CCCCCCCCCCCCCCCc1cccc(OCC(=O)NCCO)c1 [SPE_K26358347],-8.8%
2,O=C(Nc1ccccc1C(=O)Nc1ccc(CCO)cc1)c1ccc([N+](=O)[O-])cc1 [SPE_K81053848],-6.64%
3,COc1ccc(S(=O)(=O)N2CCC[C@H]2C(=O)Nc2cc(C)cc(C)c2)cc1 [SPE_K19781342],0.676%
4,COc1cc2c(cc1OC)[C@@]13CCN4CC5=CCOC6CC(=O)N2C1[C@H]6[C@H]5C[C@H]43 (stereo partly shown) [SPE_A41995253],1.19%
5,O=C(O)[C@@H]1C[C@@H](O)CN1 [SPE_A12454076],-8.44%
6,CCCCc1nc(C)c(CC(=S)N(C)C)c(=O)n1Cc1ccc(-c2ccccc2-c2nnn[nH]2)cc1 [SPE_K21586122],-5.47%
7,N=C(N)NC(=O)c1cnccn1 [SPE_K61693562],-1.49%
8,O=C1NC(c2cccc([N+](=O)[O-])c2)=CCN1c1ccccc1O [SPE_K48869804],1.47%
9,C[N+]12CCC(CC1)C(OC(=O)C(O)(c1ccccc1)c1ccccc1)C2 (stereo not shown) [SPE_A46066006],2.01%
10,CCOC(=O)CNC(=O)[C@@H]1CCCN1C(=O)Cc1ccccc1 [SPE_K22520627] (PhAc-Pro-Gly-OEt),-4.57%
11,Oc1cc2c(cc1O)CN(C(=S)NCCc1ccc(Cl)cc1)CCC2 [SPE_K44849676],-5.94%
12,O=C(c1ccc(CN2CCOCC2)cc1)N1CCN(C2CC2)CC1 [SPE_K79595931],-2.77%
13,O=C1N=C2NN=CC2C(=O)N1 (stereo not shown) [SPE_K31841515],2.22%
14,CC(C)CCN1c2nc(Nc3cc(F)c(O)c(F)c3)ncc2N(C)C(=O)C1C (stereo not shown) [SPE_A81370665],-5.78%
15,C[C@H](CCC(=O)NCCS(=O)(=O)O)[C@H]1CC[C@H]2[C@@H]3[C@@H](O)C[C@@H]4C[C@H](O)CC[C@]4(C)[C@H]3CC[C@]12C [SPE_K45245728],-11.6%
16,Cc1ccc(-c2nc3ccc(C)cn3c2CC(=O)N(C)C)cc1 [SPE_K44876623],-2.13%
17,O=C1C(Cl)=C(N2CCOCC2)C(=O)N1c1ccc(Cl)c(Cl)c1 [SPE_K79555887],5.74%
18,COC(=O)C1=C(C)NC(C)=C(C(=O)OCC(C)C)C1c1ccccc1[N+](=O)[O-] (stereo not shown) [SPE_A84465106],0.581%
19,C=C[C@@]1(C)CC(=O)[C@@]2(O)[C@](C)(O1)[C@@H](OC(C)=O)[C@@H](O)C1C(C)(C)CC[C@H](O)[C@@]12C (stereo partly shown) [SPE_A55416093],-12.3%
20,CCS(=O)(=O)c1cccc(-c2cc(C(=O)NC3CCN(C)CC3)c(C)c3[nH]c4ncc(C)cc4c23)c1 [SPE_K01683783],-6.51%
21,CN(C)CC(=O)Nc1ccc2[nH]c(=O)c3ccccc3c2c1 [SPE_K11853856],-0.459%

row,Structure (SMILES),activation at 10 µM
1,COc1cc(Nc2nc3ccccc3nc2NS(=O)(=O)c2ccc(NC(=O)c3ccc(C)c(OC)c3)cc2)cc(OC)c1 [SPE_K75308783],-7.72%
2,O=C(O)c1cc(O)c2c(c1)C(=O)c1cccc(O)c1C2=O [SPE_K27335680],-8.5%
3,Cc1cccc(C)c1NC(=O)c1ccccc1C(=O)O [SPE_K05724540],-3.96%
4,O=c1[nH]c(=O)n([C@H]2C[C@H](O)[C@@H](CO)O2)cc1/C=C/Br [SPE_A63675168],-6.33%
5,CCC[N+]12C3C[C@H](C4C(O)[C@]5(C[C@@H]41)c1ccccc1N(C)[C@@H]35)[C@H](CC)[C@H]2O (stereo partly shown) [SPE_A53539450],-3.5%
6,CCCc1c(-c2ccc(O)cc2)nn(-c2ccc(O)cc2)c1-c1ccc(O)cc1 [SPE_K00312224],1.41%
7,C[C@H](NC(=O)/C(C#N)=C/c1ccc(O)c(O)c1)c1ccccc1 [SPE_K17415526],-1.61%
8,CC(C)Cn1cnc2c1c(=O)n(C)c(=O)n2C [SPE_K06762493],-8.79%
9,CC(C)(C)NC[C@H](O)c1ccc(O)c(CO)c1 [SPE_K34469523],-6.61%
10,Cc1cc(OCc2nc(-c3ccccc3Cl)cs2)ccc1OCC(=O)O [SPE_K19409553],5.84%
11,CCCN1CCCC[C@H]1C(=O)Nc1c(C)cccc1C [SPE_K50938786],0.0286%
12,c1cc(-c2cnn3cc(-c4ccc(N5CCNCC5)cc4)cnc23)c2cccnc2c1 [SPE_K59831625],29.5%
13,S=c1[nH]cnc2nc[nH]c12 [SPE_K91601245],-8.41%
14,c1ccc(C(O[C@@H]2CCCN(CCc3ccc4c(c3)OCO4)C2)c2ccccc2)cc1 [SPE_K80451230],13%
15,N#CC(c1ccccc1)(c1ccccc1)c1ccccc1Cl [SPE_K81341251],4.81%
16,O=C(Oc1ccccc1C(=O)O)c1ccccc1O [SPE_K48892307],-11.6%
17,CC(C)C(N)=O [SPE_K54057105],-7.86%
18,C[C@@H](NC(=O)c1ncnc(N)c1Cl)c1ncc(C(=O)Nc2cc(C(F)(F)F)c(Cl)cn2)s1 [SPE_K43410529],-2.41%
19,CCN(CC)C(=S)SSC(=S)N(CC)CC [SPE_K32744045],5.11%
